This is an account of results in patent US9493511B2, “Cyclosporin analogs” (Allergan, Inc., priority 2010, dated 2016).

In assay [1] the test system is Spleen cells from C57BL/6 (responder) and BALB/c (stimulator) mice. Briefly: Mixed lymphocyte reaction (MLR) assay. The class given is cell-based, mouse.
The target of another assay is Calcineurin (Homo sapiens, UniProt P63098+Q08209). The experiment in a line: biochemical.
The next assay deals with human recombinant Cyp A (Homo sapiens, UniProt P62937). Briefly: biochemical.

Where a name gives a salt, the structure may show the parent alone. Read-outs that look alike come from different tables or passages of the source. Square brackets hold non-standard residues; d marks the D form. Peptide text beside a SMILES is read from it. * marks the point of attachment. NMe(2-epi-Bmt) = C/C=C/C[C@@H](C)[C@@H](O)[C@@H](NC)C(=O)O; Ethyl(2-morpholino) = C1CN(CC*)CCO1; Ethyl(2-guanidino) = N=C(N)NCC*; Ala(3-yl) = N[C@@H](C*)C(=O)O; NMeL = CN[C@@H](CC(C)C)C(=O)O; dNMeL = CN[C@H](CC(C)C)C(=O)O; dNMeV = CN[C@@H](C(=O)O)C(C)C; dNMeC = CN[C@H](CS)C(=O)O; dAbu = CC[C@@H](N)C(=O)O; Et2NCH2CH2 = CCN(CC)CC*; CH2CH2COOH = O=C(O)CC*; X3 = c1cc(CC*)ccn1; X5 = CN1CCC(*)CC1; X6 = COC(=O)CC*; X1 = COC(=O)C*; X4 = CC(C)NCC*; X2 = CCCCC*

Chain of human recombinant Cyp A (P62937 whole entry): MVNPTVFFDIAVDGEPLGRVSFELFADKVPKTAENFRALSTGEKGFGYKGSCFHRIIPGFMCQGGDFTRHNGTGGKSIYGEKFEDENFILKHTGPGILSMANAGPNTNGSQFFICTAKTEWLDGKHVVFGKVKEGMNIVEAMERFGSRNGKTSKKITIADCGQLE

For orientation: Ki means a dissociation constant, usually derived from enzyme kinetics or from competition with a known ligand. For `C/C=C/C[C@@H](C)[C@@H](O)[C@@H]1C(=O)N[C@H](CC)C(=O)N(C)[C@H](CSCCN(CC)CC)C(=O)N(C)[C@@H](CC(C)C)C(=O)N[C@H](C(C)C)C(=O)N(C)[C@H](CC(C)C)C(=O)N[C@H](C)C(=O)N[C@@H](C)C(=O)N(C)[C@H](CC(C)C)C(=O)N(C)[C@H](CC(C)C)C(=O)N(C)[C@H](C(C)C)C(=O)N1C` [Example 2, [(S)-2-Diethylaminoethylthiomethyl-Sar]^3 cyclosporin A] (cyclo(A[dNMeL][dNMeL][dNMeV][NMe(2-epi-Bmt)][dAbu][dNMeC](Et2NCH2CH2)[NMeL][dV][dNMeL][dA])), the IC50 in assay [1] (Mus musculus, read-out: MLR nM) stood at 3500 nM; at Calcineurin, 3.6 µM. Further, the Ki at human recombinant Cyp A is 0.0024 µM.
As for `C/C=C/C[C@@H](C)[C@@H](O)[C@@H]1C(=O)N[C@H](CC)C(=O)N(C)[C@H](CSCCc2ccncc2)C(=O)N(C)[C@@H](CC(C)C)C(=O)N[C@H](C(C)C)C(=O)N(C)[C@H](CC(C)C)C(=O)N[C@H](C)C(=O)N[C@@H](C)C(=O)N(C)[C@H](CC(C)C)C(=O)N(C)[C@H](CC(C)C)C(=O)N(C)[C@H](C(C)C)C(=O)N1C` [Example 3, [(S)-2-(4-pyridyl)ethylthiomethyl-Sar]^3 cyclosporin A] (cyclo(A[dNMeL][dNMeL][dNMeV][NMe(2-epi-Bmt)][dAbu][dNMeC](X3)[NMeL][dV][dNMeL][dA])), the IC50 in assay [1] (Mus musculus, read-out: MLR nM) turned out to be 2000 nM; on Calcineurin, 11.8 µM. Moreover, on human recombinant Cyp A, the Ki was 0.0043 µM.
As for `C/C=C/C[C@@H](C)[C@@H](O)[C@@H]1C(=O)N[C@H](CC)C(=O)N(C)[C@H](CSC)C(=O)N(C)[C@@H](CC(C)C)C(=O)N[C@H](C(C)C)C(=O)N(C)[C@H](CC(C)C)C(=O)N[C@H](C)C(=O)N[C@@H](C)C(=O)N(C)[C@H](CC(C)C)C(=O)N(C)[C@H](CC(C)C)C(=O)N(C)[C@H](C(C)C)C(=O)N1C` [Example 4, [(S)-Methylthiomethyl-Sar]^3 cyclosporin A] (cyclo(A[dNMeL][dNMeL][dNMeV][NMe(2-epi-Bmt)][dAbu][dNMeC](Me)[NMeL][dV][dNMeL][dA])), the IC50 at Calcineurin turned out to be 2.2 µM. Besides, the Ki at human recombinant Cyp A was 0.0069 µM.
As for `C/C=C/C[C@@H](C)[C@@H](O)[C@@H]1C(=O)N[C@H](CC)C(=O)N(C)[C@H](CSCCCCC)C(=O)N(C)[C@@H](CC(C)C)C(=O)N[C@H](C(C)C)C(=O)N(C)[C@H](CC(C)C)C(=O)N[C@H](C)C(=O)N[C@@H](C)C(=O)N(C)[C@H](CC(C)C)C(=O)N(C)[C@H](CC(C)C)C(=O)N(C)[C@H](C(C)C)C(=O)N1C` [Example 5, [(S)-Pentylthiomethyl-Sar]^3 cyclosporin A] (cyclo(A[dNMeL][dNMeL][dNMeV][NMe(2-epi-Bmt)][dAbu][dNMeC](X2)[NMeL][dV][dNMeL][dA])), the IC50 in assay [1] (Mus musculus, read-out: MLR nM) was 2700 nM; at Calcineurin, greater than 10 µM. Also, the Ki at human recombinant Cyp A turned out to be 0.0023 µM.
As to `C/C=C/C[C@@H](C)[C@@H](O)[C@@H]1C(=O)N[C@H](CC)C(=O)N(C)[C@H](CSC2CCN(C)CC2)C(=O)N(C)[C@@H](CC(C)C)C(=O)N[C@H](C(C)C)C(=O)N(C)[C@H](CC(C)C)C(=O)N[C@H](C)C(=O)N[C@@H](C)C(=O)N(C)[C@H](CC(C)C)C(=O)N(C)[C@H](CC(C)C)C(=O)N(C)[C@H](C(C)C)C(=O)N1C` [Example 9] (cyclo(A[dNMeL][dNMeL][dNMeV][NMe(2-epi-Bmt)][dAbu][dNMeC](X5)[NMeL][dV][dNMeL][dA])), the IC50 in assay [1] (Mus musculus, read-out: MLR nM) worked out at 3800 nM; on Calcineurin, 3.3 µM. Also, the Ki on human recombinant Cyp A was 0.0048 µM.
As to `C/C=C/C[C@@H](C)[C@@H](O)[C@@H]1C(=O)N[C@H](CC)C(=O)N(C)[C@H](CSCCN2CCOCC2)C(=O)N(C)[C@@H](CC(C)C)C(=O)N[C@H](C(C)C)C(=O)N(C)[C@H](CC(C)C)C(=O)N[C@H](C)C(=O)N[C@@H](C)C(=O)N(C)[C@H](CC(C)C)C(=O)N(C)[C@H](CC(C)C)C(=O)N(C)[C@H](C(C)C)C(=O)N1C` [Example 10, [(S)-2-(Morpholino)ethylthiomethyl-Sar]^3 cyclosporin A] (cyclo(A[dNMeL][dNMeL][dNMeV][NMe(2-epi-Bmt)][dAbu][dNMeC](Ethyl(2-morpholino))[NMeL][dV][dNMeL][dA])), the IC50 on Calcineurin turned out to be 4.2 µM. The Ki at human recombinant Cyp A came to 0.0039 µM.
For `C/C=C/C[C@@H](C)[C@@H](O)[C@@H]1C(=O)N[C@H](CC)C(=O)N(C)[C@H](CSCC(=O)OC)C(=O)N(C)[C@@H](CC(C)C)C(=O)N[C@H](C(C)C)C(=O)N(C)[C@H](CC(C)C)C(=O)N[C@H](C)C(=O)N[C@@H](C)C(=O)N(C)[C@H](CC(C)C)C(=O)N(C)[C@H](CC(C)C)C(=O)N(C)[C@H](C(C)C)C(=O)N1C` [Example 11, [(S)-Carbomethoxymethylthiomethyl-Sar]^3 cyclosporin A] (cyclo(A[dNMeL][dNMeL][dNMeV][NMe(2-epi-Bmt)][dAbu][dNMeC](X1)[NMeL][dV][dNMeL][dA])), the IC50 in assay [1] (Mus musculus, read-out: MLR nM) was 19500 nM; on Calcineurin, 3.9 µM. For the same molecule, the Ki on human recombinant Cyp A is 0.0021 µM.
With `C/C=C/C[C@@H](C)[C@@H](O)[C@@H]1C(=O)N[C@H](CC)C(=O)N(C)[C@H](CSCCC(=O)OC)C(=O)N(C)[C@@H](CC(C)C)C(=O)N[C@H](C(C)C)C(=O)N(C)[C@H](CC(C)C)C(=O)N[C@H](C)C(=O)N[C@@H](C)C(=O)N(C)[C@H](CC(C)C)C(=O)N(C)[C@H](CC(C)C)C(=O)N(C)[C@H](C(C)C)C(=O)N1C` [Example 12, [(S)-Carbomethoxyethylthiomethyl-Sar]^3 cyclosporin A] (cyclo(A[dNMeL][dNMeL][dNMeV][NMe(2-epi-Bmt)][dAbu][dNMeC](X6)[NMeL][dV][dNMeL][dA])), the IC50 on Calcineurin was determined as 9.1 µM. The Ki on human recombinant Cyp A was found to be 0.0027 µM.
In the case of `C/C=C/C[C@@H](C)[C@@H](O)[C@@H]1C(=O)N[C@H](CC)C(=O)N(C)[C@H](CSC(C)(C)[C@@H](N)C(=O)OC)C(=O)N(C)[C@@H](CC(C)C)C(=O)N[C@H](C(C)C)C(=O)N(C)[C@H](CC(C)C)C(=O)N[C@H](C)C(=O)N[C@@H](C)C(=O)N(C)[C@H](CC(C)C)C(=O)N(C)[C@H](CC(C)C)C(=O)N(C)[C@H](C(C)C)C(=O)N1C` [Example 13, [(S)-{(S)-2-Amino-2-carbomethoxy-1,1-dimethyl-ethyl}thiomethyl-Sar]^3 cyclosporin A], on Calcineurin, the IC50 came to 4.1 µM. Moreover, the Ki on human recombinant Cyp A was 0.0093 µM.
Regarding `C/C=C/C[C@@H](C)[C@@H](O)[C@@H]1C(=O)N[C@H](CC)C(=O)N(C)[C@H](CSC[C@H](N)C(=O)O)C(=O)N(C)[C@@H](CC(C)C)C(=O)N[C@H](C(C)C)C(=O)N(C)[C@H](CC(C)C)C(=O)N[C@H](C)C(=O)N[C@@H](C)C(=O)N(C)[C@H](CC(C)C)C(=O)N(C)[C@H](CC(C)C)C(=O)N(C)[C@H](C(C)C)C(=O)N1C` [Example 14, [(S)-{(R)-2-Amino-2-carbohydroxy-ethyl}thiomethyl-Sar]^3 cyclosporin A] (cyclo(A[dNMeL][dNMeL][dNMeV][NMe(2-epi-Bmt)][dAbu][dNMeC](Ala(3-yl))[NMeL][dV][dNMeL][dA])), at Calcineurin, the IC50 came out at 7.4 µM.
`C/C=C/C[C@@H](C)[C@@H](O)[C@@H]1C(=O)N[C@H](CC)C(=O)N(C)[C@H](CSC(C)(C)[C@@H](N)C(=O)O)C(=O)N(C)[C@@H](CC(C)C)C(=O)N[C@H](C(C)C)C(=O)N(C)[C@H](CC(C)C)C(=O)N[C@H](C)C(=O)N[C@@H](C)C(=O)N(C)[C@H](CC(C)C)C(=O)N(C)[C@H](CC(C)C)C(=O)N(C)[C@H](C(C)C)C(=O)N1C` [Example 16, [(S)-{(S)-2-Amino-2-carbohydroxy-1,1-dimethyl-ethyl}thiomethyl-Sar]^3 cyclosporin A]: the IC50 at Calcineurin amounted to 2.7 µM. The Ki on human recombinant Cyp A was found to be 0.0058 µM.
On to `C/C=C/C[C@@H](C)[C@@H](O)[C@@H]1C(=O)N[C@H](CC)C(=O)N(C)[C@H](CSCCC(=O)O)C(=O)N(C)[C@@H](CC(C)C)C(=O)N[C@H](C(C)C)C(=O)N(C)[C@H](CC(C)C)C(=O)N[C@H](C)C(=O)N[C@@H](C)C(=O)N(C)[C@H](CC(C)C)C(=O)N(C)[C@H](CC(C)C)C(=O)N(C)[C@H](C(C)C)C(=O)N1C` [Example 17, [(S)-Carbohydroxyethylthiomethyl-Sar]^3 cyclosporin A] (cyclo(A[dNMeL][dNMeL][dNMeV][NMe(2-epi-Bmt)][dAbu][dNMeC](CH2CH2COOH)[NMeL][dV][dNMeL][dA])), for which, on Calcineurin, the IC50 was 17 µM. For the same molecule, at human recombinant Cyp A, the Ki was determined as 0.0028 µM.
Consider `C/C=C/C[C@@H](C)[C@@H](O)[C@@H]1C(=O)N[C@H](CC)C(=O)N(C)[C@H](CSCCNC(C)C)C(=O)N(C)[C@@H](CC(C)C)C(=O)N[C@H](C(C)C)C(=O)N(C)[C@H](CC(C)C)C(=O)N[C@H](C)C(=O)N[C@@H](C)C(=O)N(C)[C@H](CC(C)C)C(=O)N(C)[C@H](CC(C)C)C(=O)N(C)[C@H](C(C)C)C(=O)N1C` [Example 18, [(S)-2-Isopropylaminoethylthiomethyl-Sar]^3 cyclosporin A] (cyclo(A[dNMeL][dNMeL][dNMeV][NMe(2-epi-Bmt)][dAbu][dNMeC](X4)[NMeL][dV][dNMeL][dA])), for which the IC50 amounted to 3300 nM in assay [1] (mouse spleen cells, five days, 3H-thymidine proliferation, read-out: MLR) and 4.6 µM on Calcineurin. Moreover, the Ki on human recombinant Cyp A was found to be 0.0052 µM.
For `C/C=C/C[C@@H](C)[C@@H](O)[C@@H]1C(=O)N[C@H](CC)C(=O)N(C)[C@H](CSCCNC(=N)N)C(=O)N(C)[C@@H](CC(C)C)C(=O)N[C@H](C(C)C)C(=O)N(C)[C@H](CC(C)C)C(=O)N[C@H](C)C(=O)N[C@@H](C)C(=O)N(C)[C@H](CC(C)C)C(=O)N(C)[C@H](CC(C)C)C(=O)N(C)[C@H](C(C)C)C(=O)N1C` [Example 19, [(S)-2-Guanidinoethyl-1-sulfanylmethyl-Sar]^3 cyclosporin A hydrochloride] (cyclo(A[dNMeL][dNMeL][dNMeV][NMe(2-epi-Bmt)][dAbu][dNMeC](Ethyl(2-guanidino))[NMeL][dV][dNMeL][dA])), the IC50 on Calcineurin was 3.2 µM. Also, the Ki at human recombinant Cyp A turned out to be 0.0068 µM.
